According to publication PMC9849758, “Chemically diverse activity-based probes with unexpected inhibitory mechanisms targeting trypsin-like serine proteases” (Frontiers in Chemistry, 2023):

What was measured:
[1] = molecular target: T1, Trypsin-3 (Homo sapiens, UniProt P35030); test: Kinetic progress curves (kapp, K1, KI*, mechanism); type: biochemical; set-up: purchased R&D
T1 sequence (P35030 1-304): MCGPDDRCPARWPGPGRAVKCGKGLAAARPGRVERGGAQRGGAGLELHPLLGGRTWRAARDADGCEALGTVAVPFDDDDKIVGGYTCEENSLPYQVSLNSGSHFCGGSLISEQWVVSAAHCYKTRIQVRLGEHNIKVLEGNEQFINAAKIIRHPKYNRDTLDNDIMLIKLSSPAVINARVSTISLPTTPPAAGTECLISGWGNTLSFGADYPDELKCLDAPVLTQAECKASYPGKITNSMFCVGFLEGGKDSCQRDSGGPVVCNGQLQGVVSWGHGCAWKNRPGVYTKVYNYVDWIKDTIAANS
Method: Because the compounds described in this paper were previously described as irreversible inhibitors, the IC50 value is inversely correlated with the second-order rate constant of inactivation. For a simple pseudo-first-order inactivation process, the activity after incubation with inhibitor (vi) varies with the inhibitor concentration (i), as described in the following equation: vi=v0·e^−kit where v0 is the activity in the absence of an inhibitor, k is the second-order rate constant of inactivation, and t is the time. The inactivation rate constant was determined from the time course of inhibition.
Kinetic assays were performed in the following manner. The inhibitor was mixed with the substrate, and the buffer solution with the enzyme was added at the time zero. The progress curves show the release of pNA or AMC as a function of time. Initially, no inhibitor is bound to the enzyme, and the tangent to the progress curve (dA/dt) is proportional to the free enzyme concentration. The free enzyme concentration decreases over time due to inhibitor binding kinetics, as described above. Progress curves were recorded in pseudo-first-order conditions ([I]0>>[E]0) and with less than 10% conversion of the substrate during the entire time course. In these conditions, dA/dt decreases exponentially with time. The progress curves were fitted with the integrated rate equation with GraFit7 to yield a value for kobs, a pseudo-first-order rate constant. At=Ao+vs∙t+vi−vs∙1−e^−kobs∙t/kobs where At is the absorbance at time t, A0 is the absorbance at time zero, vi is the initial rate and vs is the velocity at the steady-state.
The apparent second-order rate constant (kapp) was calculated from the slope of the linear part of the plot of kobs vs. the inhibitor concentration ([I]0). In the case of competition between the inhibitor and the substrate, kapp is smaller than the “real” second-order rate constant k discussed above because a certain fraction of the enzyme is present as an enzyme-substrate complex. kapp depends on the substrate concentration used in the experiment, as described by [Lambeir et al. (1996)].
The apparent equilibrium constants were obtained from the following equations, vi/vo=1/1+I/K1; vS/vo=1/1+I/KI* where vi is the initial rate, vs is the steady-state velocity and vo is the uninhibited initial rate.

[2] = molecular target: T1, Trypsin-3; test: Jump dilution, determination of inhibition type; type: biochemical; set-up: purchased R&D; conditions: inhibitor at 10 times IC50, 15 min, diluted 10-fold or 100-fold; Rev./Irrev.
Method: The dissociation of the enzyme-inhibitor complex was monitored by substrate hydrolysis over time ([Joossens et al., 2006]).
Because ABPs are designed to be irreversible serine protease inhibitors, the IC50 is exclusively used as a first discriminatory evaluation. When an inhibitor is irreversible, its IC50 value not only depends on the substrate and enzyme concentration but also on the time of incubation with the enzyme before the reaction is started by adding the substrate. […] The progress curve in the presence of an irreversible inhibitor will show final velocities equal to zero (Figure 6C). In contrast, for a reversible inhibitor, progress curves have a non-zero final steady-state velocity (Figure 6A) ([McWhirter, 2021]). To corroborate the inhibitory mechanism of the compounds, jump-dilution assays were performed. These use an inhibitor concentration of 10-fold the IC50 for the incubation, and a posteriori, the reaction mixture is diluted 10-fold or 100-fold before adding the substrate. In the case of an irreversible inhibitor, enzymatic activity is not regained (Figure 6D), whereas, in the case of a reversible compound, a slow release of the inhibitor and a gradual increase of the enzymatic activity rate is observed (Figure 6B) ([Copeland, 2013]; [McWhirter, 2021]). The jump-dilution assays confirmed the behavior described by the progress curves.
2.2.2 Jump dilution results
Supplementary Table 2. Jump dilution of selected alkyne and desthiobiotin probes against a panel of trypsin-like serine proteases. […]
# R R DtBa 3 tryptase Thrombin uPA CatG
32b H Alk Irrev. Irrev. Rev. Irrev. Rev.
45b DtB Irrev. Irrev. Rev. N.D. N.D.
33b Alk Irrev. Irrev. Rev. Irrev. Rev.
46b Cl DtB Irrev. Irrev. Rev. N.D. N.D.
34b H Alk Rev. Rev. Rev. Irrev. Rev.
50b DtB Rev. Rev. Rev. Irrev. Rev.
35b Alk Rev. Rev. Rev. Irrev. Rev.
52b NHCOMe DtB Rev. Rev. Rev. Irrev. Rev.
36b Alk Rev. Rev. Rev. Irrev. Rev.
54b Cl DtB Rev. Rev. Rev. Irrev. Rev.
37b Alk Irrev. Irrev. N.D. Irrev. Irrev.
55b H DtB Irrev. Irrev. N.D. Irrev. Irrev.
38b Alk Irrev. Irrev. N.D. Irrev. Irrev.
56b NHCOMe DtB Irrev. Irrev. N.D. Irrev. Irrev.
39b Alk Irrev. Irrev. N.D. Irrev. Rev.
57b Cl DtB Irrev. Irrev. N.D. Irrev. Rev.
41b H Alk Irrev. Irrev. Irrev. N.D. N.D.
31b Pro-Lys H Alk Irrev. Irrev. Irrev. Irrev. N.D. a Alk: ABP precursor bearing an alkyne; DtB: desthiobiotin probe b Panel of serine proteases abbreviations: urokinase plasminogen activator (uPA), cathepsin G (catG) N.D.: IC50 is greater than 10µM, and jump dilution was not performed
2.2.3 Progress curves and Jump dilution experiments
Kinetic assays were performed in the following manner. The inhibitor was mixed with the substrate, and the buffer solution with the enzyme was added at the time zero. The progress curves show the release of para-nitroaniline (pNA) or 7-amino-4-methyl coumarin (AMC) as a function of time.
To monitor the dissociation of the inhibitor-enzyme, aliquots of the enzyme were incubated at 37 °C without and with the inhibitor at a concentration 10 times higher than its IC 50. The enzyme […]
min, the aliquots were diluted 10-fold or 100-fold into the substrate concentration and assay buffer used for the IC50 determination. The dissociation of the enzyme-inhibitor complex was monitored by substrate hydrolysis over time. Blue lines represent the control where no inhibitor was present. Pink lines represent the assay with inhibitor.

SMILES: C[C@@H]1NC(=O)N[C@@H]1CCCCCC(=O)NCCOCCOCCOCCn1cc(CCCOC(=O)NC(c2ccc(NC(=N)N)cc2)P(=O)(Oc2ccccc2)Oc2ccccc2)nn1 (stereo partly drawn) [55b]
- Trypsin-3 kapp ([1]; apparent second-order rate constant from progress curves, mean ± SD): 231 ± 18 M⁻¹ s⁻¹
- Trypsin-3 mechanism of inhibition ([1]; defined by the progress curves: slow-binding (Rev.) or irreversible (Irrev.)): Irrev.
- Trypsin-3 jump dilution result [2]: Irrev.
